In patent publication US12116358B2, “Substituted indoles and methods of use thereof” (EPIZYME, INC., priority 2018, dated 2024):
Where two headings read alike, the source gives them in different places.

Tests used:
H3K36me3 in A549 cells = experiment: In-Cell Western (ICW) assay of SETD2 inhibitors (A549 assay); format: cell-based, human; conditions: A549 cells, read-out: SETD2 A549
Method in brief: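 A549 cells seeded at 4,000/well onto compound and incubated 3 days at 37° C. Methanol-fixed cells stained overnight at 4° C with anti-H3K36me3 (1:1000), then IRDye 800CW secondary with DRAQ5 DNA counterstain. Plates read by Licor imaging at 700 and 800 channels.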

SETD2(1434-1711) = molecular target: T1, SETD2(1434-1711) (Homo sapiens, UniProt Q9BYW2); experiment: SETD2 (1434-1711) assay; format: biochemical; conditions: read-out: SETD2 (1434-1711)
T1 construct: SETD2 (1434-1711) Assay; catalogue N/A
T1 sequence (Q9BYW2 1434-1711): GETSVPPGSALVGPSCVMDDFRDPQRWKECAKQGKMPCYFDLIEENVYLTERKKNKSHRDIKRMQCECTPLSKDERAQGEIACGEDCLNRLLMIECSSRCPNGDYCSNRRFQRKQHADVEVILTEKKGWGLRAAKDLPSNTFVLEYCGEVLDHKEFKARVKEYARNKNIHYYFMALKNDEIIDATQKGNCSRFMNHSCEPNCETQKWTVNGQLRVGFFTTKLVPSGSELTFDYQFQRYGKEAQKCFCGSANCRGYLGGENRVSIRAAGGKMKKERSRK

SMILES	IC50 (H3K36me3 in A549 cells) [nM]	IC50 (SETD2(1434-1711)) [nM]	IC50 (H3K36me3 in A549 cells; Homo sapiens) [nM]
Cc1ccc(F)c2cc(C(=O)Nc3cccc(N4CCC(N(C)CCF)C4)c3)[nH]c12 (centres unmarked) [compound 97]	200	40	
Cc1ccc(F)c2cc(C(=O)Nc3cccc(N4CCC5(CC4)CN(C)C5)c3)[nH]c12 [compound 98]	200	9	
Cc1ccc(F)c2cc(C(=O)Nc3cccc(N4CCC(N(C)C)C(C)C4)c3)[nH]c12 (centres unmarked) [compound 99]	200	30	
Cc1ccc(F)c2cc(C(=O)Nc3cccc(N4CCN(C5CC5)C(=O)C4)c3)[nH]c12 [compound 100]	200	30	
Cc1ccc(F)c2cc(C(=O)Nc3cccc(C4CCOCC4)c3)[nH]c12 [compound 101]	200	50	
Cc1ccc(F)c2cc(C(=O)Nc3cccc(N4CC[C@H](N(C)C)C4)c3)[nH]c12 [compound 102]	200	20	
Cc1ccc(F)c2cc(C(=O)Nc3cccc(N4CCC(CO)(CO)CC4)c3)[nH]c12 [compound 103]	200	30	
CC(=O)N1CCCC12CCN(c1cc(F)cc(NC(=O)c3cc4c(F)ccc(C)c4[nH]3)c1)CC2 [compound 104]	200	30	
Cc1ccc(F)c2cc(C(=O)Nc3cc(F)cc(N4C[C@@H]5CCN(C)[C@@H]5C4)c3)[nH]c12 [compound 105]	200	8	
Cc1ccc(F)c2cc(C(=O)Nc3cc(Cl)cc([C@H]4CC[C@@H](N(C)C)CC4)c3)[nH]c12 [compound 106]	200	3	
Cc1ccc(F)c2cc(C(=O)Nc3cccc(-c4nnc(CO)s4)c3)[nH]c12 [compound 107]	200	40	
Cc1ccc(F)c2cc(C(=O)Nc3cccc(-c4cnco4)c3)[nH]c12 [compound 108]		60	200
COCCN1CCC2(CC1)CN(c1cccc(NC(=O)c3cc4c(F)ccc(C)c4[nH]3)c1)C2 [compound 109]	200	10	
Cc1ccc(F)c2cc(C(=O)Nc3cccc(N4CCC5(CC4)CN(CC(F)(F)F)C5)c3)[nH]c12 [compound 110]	200	100	
Cc1ccc(F)c2cc(C(=O)Nc3cccc(N4CC[C@H](N(C)C)[C@H](C)C4)c3)[nH]c12 [compound 111]	200	8	
COC(=O)N1CCC2(CC1)CN(c1cccc(NC(=O)c3cc4c(F)ccc(C)c4[nH]3)c1)C2 [compound 112]	200	30	
Cc1ccc(F)c2cc(C(=O)Nc3cc(F)cc(C4CCN5C(=O)CC[C@@H]5C4)c3)[nH]c12 (some centres unmarked) [compound 114]		60	200
Cc1ccc(F)c2cc(C(=O)Nc3cccc(-c4ccncc4)c3)[nH]c12 [compound 116]		40	200
Cc1ccc(F)c2cc(C(=O)Nc3cccc(N4CCC(CN(C)C)CC4)c3)[nH]c12 [compound 117]	200	20	
Cc1ccc(F)c2cc(C(=O)Nc3cccc(N4CCCC4=O)c3)[nH]c12 [compound 118]		50	200
Cc1ccc(F)c2cc(C(=O)Nc3cccc(-c4nnc(C5CC5)o4)c3)[nH]c12 [compound 119]	200	30	
Cc1ccc(F)c2cc(C(=O)Nc3cc(Cl)cc(N4CCC(N(C)C)C4)c3)[nH]c12 (centres unmarked) [compound 120]		6	300
COC(=O)N1CCN(c2cccc(NC(=O)c3cc4c(F)ccc(C)c4[nH]3)c2)CC1 [compound 121]	300	50	
Cc1ccc(F)c2cc(C(=O)Nc3cc(F)cc(N4C[C@H]5CCN(C)[C@H]5C4)c3)[nH]c12 [compound 122]		10	300
CC(=O)N1CCCC(c2cccc(NC(=O)c3cc4c(F)ccc(C)c4[nH]3)c2)C1 (centres unmarked) [compound 123]		50	300
Cc1ccc(F)c2cc(C(=O)Nc3cccc(N4CC5CCCNC5C4)c3)[nH]c12 (centres unmarked) [compound 124]		7	300

SMILES	IC50 (H3K36me3 in A549 cells) [nM]	IC50 (SETD2(1434-1711)) [nM]	IC50 (H3K36me3 in A549 cells; Homo sapiens) [nM]
Cc1ccc(F)c2cc(C(=O)Nc3cccc(N4CCCS4(=O)=O)c3)[nH]c12 [compound 125]		80	300
Cc1ccc(F)c2cc(C(=O)Nc3cccc(N4CCC(O)CC4)c3)[nH]c12 [compound 126]		50	300
COC(=O)N1CCC2(CCN(c3cccc(NC(=O)c4cc5c(F)ccc(C)c5[nH]4)c3)CC2)C1 [compound 127]		40	300
CNC1CCN(c2cccc(NC(=O)c3cc4c(F)ccc(C)c4[nH]3)c2)C1 (centres unmarked) [compound 128]		10	300
Cc1ccc(F)c2cc(C(=O)Nc3cccc(N4CCOC(C)C4)c3)[nH]c12 (centres unmarked) [compound 129]		60	300
Cc1ccc(F)c2cc(C(=O)Nc3cccc(N4CCC(N(C)CCF)C4)c3)[nH]c12 (centres unmarked) [compound 130]		40	300
Cc1ccc(F)c2cc(C(=O)N[C@H]3CCC[C@@H](c4cncnc4)C3)[nH]c12 [compound 131]		100	300
Cc1ccc(F)c2cc(C(=O)Nc3cccc(-c4nnc(CN(C)C)s4)c3)[nH]c12 [compound 132]		50	300
COCC1CN(c2cccc(NC(=O)c3cc4c(F)ccc(C)c4[nH]3)c2)CCO1 (centres unmarked) [compound 133]		100	300
Cc1ccc(F)c2cc(C(=O)Nc3cccc(N4CC5(CN(C)C5)C4)c3)[nH]c12 [compound 135]		20	300
Cc1ccc(F)c2cc(C(=O)Nc3cccc(-c4ccc(CNS(C)(=O)=O)cc4)c3)[nH]c12 [compound 136]		400	300
Cc1ccc(F)c2cc(C(=O)Nc3cccc(-c4cccnc4)c3)[nH]c12 [compound 137]		50	300
Cc1ccc(F)c2cc(C(=O)Nc3cccc(N4CCN(C(=O)C5CCCN(C)C5)CC4)c3)[nH]c12 (centres unmarked) [compound 138]		10	300
CNC(=O)N1CCN(c2cccc(NC(=O)c3cc4c(F)ccc(C)c4[nH]3)c2)CC1 [compound 139]		50	300
Cc1ccc(F)c2cc(C(=O)Nc3cc(F)cc(C4CCN(C(=O)CN(C)C)C4)c3)[nH]c12 (centres unmarked) [compound 140]		10	300
Cc1cccnc1C(Cc1cnn(CC2CC2)c1)NC(=O)c1cc2c(F)ccc(C)c2[nH]1 (centres unmarked) [compound 141]		40	300
Cc1ccc(F)c2cc(C(=O)Nc3cccc(N4CCC5(CCCN5CC(F)F)CC4)c3)[nH]c12 [compound 142]		40	300
Cc1ccc(F)c2cc(C(=O)Nc3cccc(N4CCOC(C5CC5)C4)c3)[nH]c12 (centres unmarked) [compound 143]		60	300
CNC1CCN(c2cccc(NC(=O)c3cc4c(F)ccc(C)c4[nH]3)c2)CC1 [compound 144]		20	300
Cc1ccc(F)c2cc(C(=O)Nc3cc(Cl)cc(-c4cncnc4)c3)[nH]c12 [compound 145]		30	300
Cc1ccc(F)c2cc(C(=O)Nc3cccc(N4CCN(C5CCOC5)CC4)c3)[nH]c12 (centres unmarked) [compound 146]		200	300
Cc1ccc(F)c2cc(C(=O)Nc3cccc(N4CCNC(=O)C4)c3)[nH]c12 [compound 147]		30	300
Cc1ccc(F)c2cc(C(=O)Nc3cccc(N4CCC(N(C)CCO)C4)c3)[nH]c12 (centres unmarked) [compound 148]		20	300
Cc1ccc(F)c2cc(C(=O)Nc3cccc(N4CCN(C(=O)CCO)CC4)c3)[nH]c12 [compound 149]		70	300
Cc1ccc(F)c2cc(C(=O)Nc3cccc(N4CCC(CCCN)CC4)c3)[nH]c12 [compound 150]		20	300
Cc1ccc(F)c2cc(C(=O)Nc3cccc(N4CCC(N5CCN(C)CC5)CC4)c3)[nH]c12 [compound 152]		10	300
